Earlier results, collected in US6812249B2, “Process for preparing a 3-hydroxy-3-methylbutyrate amino acid salt and method of use” (priority 2003, dated 2004).

Details: experienced weight trained athletes; oral supplementation for 6 weeks or 28 days

Structure (SMILES): CC(C)(O)CC(=O)[O-].CC(C)(O)CC(=O)[O-].[Ca+2] [HMB calcium salt]
- alteration in muscle size, fat mass, or strength variables: no alteration in muscle size, fat mass, or strength variables
